Measurements: ChEMBL document CHEMBL1201862, “PubChem BioAssay data set” (2004)
Activity calls are given as the source filed them.

Key:
[1] = target: T1, Cytochrome P450 1A2 (Homo sapiens, UniProt P05177);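 note: PubChem cytochrome P450 panel assay, CYP1A2 panel member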
T1 sequence (P05177 whole entry): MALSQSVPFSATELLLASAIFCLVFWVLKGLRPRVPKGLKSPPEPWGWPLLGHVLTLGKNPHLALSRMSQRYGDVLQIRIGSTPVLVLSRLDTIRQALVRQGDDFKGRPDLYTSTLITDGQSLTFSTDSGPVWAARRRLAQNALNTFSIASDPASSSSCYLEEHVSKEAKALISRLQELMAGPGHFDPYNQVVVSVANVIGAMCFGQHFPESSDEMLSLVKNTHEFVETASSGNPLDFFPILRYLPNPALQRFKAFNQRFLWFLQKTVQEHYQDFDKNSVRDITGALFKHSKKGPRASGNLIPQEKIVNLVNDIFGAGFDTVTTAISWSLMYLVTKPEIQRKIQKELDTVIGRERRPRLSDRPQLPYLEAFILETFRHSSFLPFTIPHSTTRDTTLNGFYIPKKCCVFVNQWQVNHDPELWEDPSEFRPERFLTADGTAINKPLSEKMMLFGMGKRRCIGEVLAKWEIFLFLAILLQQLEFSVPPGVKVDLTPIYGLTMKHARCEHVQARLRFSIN

[2] = target: Cytochrome P450 2C9 (Homo sapiens, UniProt P11712)
[3] = intracellular Trypanosoma cruzi inhibitors in host cells – cell-based, plate reader, cherry-pick samples, set 3, dose response (AID 651818); type: functional;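 note: compounds incubated with infected cells for about four days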
[4] = target: T2, High affinity choline transporter 1 (Homo sapiens, UniProt Q9GZV3); assay: CHT inhibitors, dose response, cell-based, 5-point CRC, membrane potential dye (AID 504840); type: functional
T2 sequence (Q9GZV3 whole entry): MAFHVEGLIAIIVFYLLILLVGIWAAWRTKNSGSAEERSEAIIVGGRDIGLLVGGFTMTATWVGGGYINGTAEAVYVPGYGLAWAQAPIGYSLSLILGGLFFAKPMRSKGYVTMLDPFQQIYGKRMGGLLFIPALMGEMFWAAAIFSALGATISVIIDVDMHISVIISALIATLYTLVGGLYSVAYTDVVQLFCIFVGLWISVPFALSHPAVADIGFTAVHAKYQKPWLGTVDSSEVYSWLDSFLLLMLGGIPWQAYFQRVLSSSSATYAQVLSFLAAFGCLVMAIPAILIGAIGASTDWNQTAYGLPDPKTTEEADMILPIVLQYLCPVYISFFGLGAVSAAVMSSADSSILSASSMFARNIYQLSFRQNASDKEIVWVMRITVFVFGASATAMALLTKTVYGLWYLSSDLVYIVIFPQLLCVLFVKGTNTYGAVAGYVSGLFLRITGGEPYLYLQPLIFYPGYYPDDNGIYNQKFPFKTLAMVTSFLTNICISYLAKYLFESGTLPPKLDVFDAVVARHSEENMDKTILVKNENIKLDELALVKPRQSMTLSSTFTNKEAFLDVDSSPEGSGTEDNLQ

[5] = HEp-2 cell cytotoxicity, dose response, cytotoxicity control for RSV inhibitor project, HTS (AID 2410); type: functional; conditions: human respiratory syncytial virus
[6] = microbe, parasite or virus in culture; type: functional; conditions: Mycobacterium tuberculosis
[7] = Luminescence Cell-Based Dose Retest to Confirm Inhibitors of Cancer Stem Cells. [Related pubchem assays (depositor defined):AID2717, AID2721]; type: functional, Homo sapiens; conditions: Homo sapiens
[8] = target: Cytochrome P450 2D6 (Homo sapiens, UniProt P10635);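 note: CYP2D6 member of a cytochrome P450 panel assay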
[9] = cells; type: functional, cell-based
[10] = target: T3, Trace amine-associated receptor 1 (Homo sapiens, UniProt Q96RJ0); assay: Fluorescence-based cell-based high throughput dose response assay to identify agonists of the human trace amine associated receptor 1 (TAAR1).; type: functional
T3 sequence (Q96RJ0 whole entry): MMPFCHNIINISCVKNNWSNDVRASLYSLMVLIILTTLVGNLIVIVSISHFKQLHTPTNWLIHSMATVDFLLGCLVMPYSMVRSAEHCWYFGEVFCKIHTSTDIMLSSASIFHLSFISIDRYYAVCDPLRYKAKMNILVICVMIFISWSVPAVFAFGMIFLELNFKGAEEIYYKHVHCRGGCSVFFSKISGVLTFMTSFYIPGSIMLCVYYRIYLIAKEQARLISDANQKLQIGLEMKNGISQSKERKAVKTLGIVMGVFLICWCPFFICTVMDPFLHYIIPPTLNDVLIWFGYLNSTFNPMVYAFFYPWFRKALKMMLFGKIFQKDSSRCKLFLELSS

[11] = target: T3, Trace amine-associated receptor 1; assay: Counterscreen for agonists of the human trace amine associated receptor 1 (hTAAR1): Fluorescence-based cell-based high throughput dose response assay to identify hTAAR1 agonist that also desensitize TAAR1 receptor response.; type: functional
[12] = cells; type: functional, cell-based; remark: listed apart in the source
[13] = target: T4, Ubiquitin-conjugating enzyme E2 N (Homo sapiens, UniProt P61088); type: functional;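 note: Dose-response confirmation in a TR-FRET assay detecting UBC13-driven polyubiquitin chain formation, inhibition measured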
T4 sequence (P61088 whole entry): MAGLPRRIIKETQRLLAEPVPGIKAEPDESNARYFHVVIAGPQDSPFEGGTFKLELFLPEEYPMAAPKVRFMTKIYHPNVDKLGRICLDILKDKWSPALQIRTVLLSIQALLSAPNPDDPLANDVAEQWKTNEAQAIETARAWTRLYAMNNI

[14] = target: T5, Corticotropin-releasing factor receptor 2/Corticotropin-releasing factor-binding protein (Homo sapiens, UniProt P24387+Q13324); assay: Dose Response confirmation of uHTS hits for small molecule antagonists of the CRF-binding protein and CRF-R2 receptor complex.; type: functional; conditions: read-out: IC50_Mean
T5 sequence (Q13324 whole entry): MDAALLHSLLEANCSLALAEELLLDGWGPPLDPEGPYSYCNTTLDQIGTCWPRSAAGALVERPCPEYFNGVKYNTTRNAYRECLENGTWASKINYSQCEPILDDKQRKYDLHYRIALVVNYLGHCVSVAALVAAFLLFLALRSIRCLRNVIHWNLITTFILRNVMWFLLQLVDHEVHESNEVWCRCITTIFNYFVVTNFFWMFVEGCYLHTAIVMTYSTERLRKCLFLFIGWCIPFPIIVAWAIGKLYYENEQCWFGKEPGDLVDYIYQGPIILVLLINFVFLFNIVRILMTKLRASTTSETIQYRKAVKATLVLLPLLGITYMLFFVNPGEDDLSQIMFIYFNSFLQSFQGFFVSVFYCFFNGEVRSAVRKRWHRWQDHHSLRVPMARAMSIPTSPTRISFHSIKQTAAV
T5 sequence (P24387 whole entry): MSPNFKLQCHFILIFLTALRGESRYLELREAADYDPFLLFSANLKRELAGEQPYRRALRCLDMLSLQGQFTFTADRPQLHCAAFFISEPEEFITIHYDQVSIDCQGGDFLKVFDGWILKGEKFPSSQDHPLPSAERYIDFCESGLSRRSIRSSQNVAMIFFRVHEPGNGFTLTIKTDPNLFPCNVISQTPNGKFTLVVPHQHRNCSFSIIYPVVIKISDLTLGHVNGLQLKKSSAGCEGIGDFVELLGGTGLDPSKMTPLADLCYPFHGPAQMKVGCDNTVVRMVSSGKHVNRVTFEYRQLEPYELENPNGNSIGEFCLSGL

[15] = target: T5, Corticotropin-releasing factor receptor 2/Corticotropin-releasing factor-binding protein; assay: activators of CRF receptor 2 with binding protein – uHTS hits, confirmation (AID 602473); type: functional; conditions: read-out: EC50_Mean
[16] = target: Cytochrome P450 2C19 (Homo sapiens, UniProt P33261); assay: Cytochrome panel assay with activity outcomes. Panel member name: p450-cyp2c19 Compounds with AC50 equal or less than 10 uM are considered active; type: functional; conditions: read-out: AC50
Cytochrome P450 2C19, sequence (P33261 whole entry): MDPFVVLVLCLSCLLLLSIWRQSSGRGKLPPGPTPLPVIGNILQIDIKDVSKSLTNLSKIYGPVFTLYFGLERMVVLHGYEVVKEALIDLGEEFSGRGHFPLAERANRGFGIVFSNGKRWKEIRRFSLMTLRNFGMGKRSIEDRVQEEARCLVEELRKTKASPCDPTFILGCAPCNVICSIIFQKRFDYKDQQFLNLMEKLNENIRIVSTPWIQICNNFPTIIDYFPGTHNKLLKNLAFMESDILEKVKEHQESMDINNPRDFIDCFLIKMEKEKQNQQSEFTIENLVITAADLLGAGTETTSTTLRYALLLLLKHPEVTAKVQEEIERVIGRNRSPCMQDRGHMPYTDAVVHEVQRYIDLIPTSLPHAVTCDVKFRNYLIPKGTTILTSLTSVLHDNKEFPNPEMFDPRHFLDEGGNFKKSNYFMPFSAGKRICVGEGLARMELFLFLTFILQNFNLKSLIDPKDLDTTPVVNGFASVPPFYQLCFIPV

Cytochrome P450 2C9, sequence (P11712 whole entry): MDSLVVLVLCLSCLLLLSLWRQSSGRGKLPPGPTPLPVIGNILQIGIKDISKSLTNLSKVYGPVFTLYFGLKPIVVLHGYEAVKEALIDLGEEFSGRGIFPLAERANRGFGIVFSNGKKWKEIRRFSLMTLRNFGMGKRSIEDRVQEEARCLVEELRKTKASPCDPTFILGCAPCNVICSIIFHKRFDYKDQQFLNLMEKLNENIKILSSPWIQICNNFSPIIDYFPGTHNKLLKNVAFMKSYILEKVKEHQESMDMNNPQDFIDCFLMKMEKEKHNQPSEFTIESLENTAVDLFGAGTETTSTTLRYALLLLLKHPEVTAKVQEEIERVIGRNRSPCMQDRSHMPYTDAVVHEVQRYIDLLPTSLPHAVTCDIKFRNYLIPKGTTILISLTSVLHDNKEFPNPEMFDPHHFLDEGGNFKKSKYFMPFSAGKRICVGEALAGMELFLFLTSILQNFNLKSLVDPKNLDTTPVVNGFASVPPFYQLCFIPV
Cytochrome P450 2D6, sequence (P10635 whole entry): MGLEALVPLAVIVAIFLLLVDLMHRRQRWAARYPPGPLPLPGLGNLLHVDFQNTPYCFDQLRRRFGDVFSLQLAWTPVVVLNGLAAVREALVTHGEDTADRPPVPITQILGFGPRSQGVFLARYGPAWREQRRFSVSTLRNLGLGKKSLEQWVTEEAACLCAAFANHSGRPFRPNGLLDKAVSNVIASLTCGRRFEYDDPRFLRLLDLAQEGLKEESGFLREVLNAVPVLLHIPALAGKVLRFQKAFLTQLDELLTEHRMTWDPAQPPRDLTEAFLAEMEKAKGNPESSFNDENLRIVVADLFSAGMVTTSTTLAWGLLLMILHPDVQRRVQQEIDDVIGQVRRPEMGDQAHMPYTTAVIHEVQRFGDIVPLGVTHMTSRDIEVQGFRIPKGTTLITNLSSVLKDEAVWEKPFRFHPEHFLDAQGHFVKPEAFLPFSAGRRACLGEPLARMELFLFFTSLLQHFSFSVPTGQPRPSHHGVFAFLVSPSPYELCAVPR

CN(C)C(=O)c1ccc(-c2nc(NC3CCNCC3)c3ccccc3n2)cc1
AC50 [1]: 20 µM (inconclusive)
AC50 [2]: inconclusive

C[C@@H]1CCCCO[C@H](CN(C)Cc2ccc(Cl)c(Cl)c2)[C@@H](C)CN([C@H](C)CO)C(=O)c2cc(NC(=O)Nc3cccc4ccccc34)ccc2O1
AC50 [3]: 3.72 µM (active)

CCN1CCN(C(=O)c2ccc3nc(-c4ccccc4)c(-c4ccccc4)nc3c2)CC1
IC50 [4]: 15.6 µM (active)

O=C(N/N=C/c1ccc(-c2cccc(Cl)c2)o1)c1ccccn1
AC50 [3]: 0.15 µM (active)

Cc1csc(NC(=O)CCN2C(=O)c3ccccc3S2(=O)=O)n1
IC50 [4]: 13.8 µM (active)

CCn1c(C)c(C)c2cc(C(=O)Nc3cccc(Cl)c3)ccc21
CC50 [5]: 30.4 µM (active)
CC50 [6]: > 40 µM (active)
AC50 [7]: 3.56 µM (active)
AC50 [2]: inconclusive

Cn1c(CN2CCCCC2)nc2cc(NC(=O)c3ccccc3Cl)ccc21
IC50 [4]: 13.5 µM (active)

CN1CCN(c2ncc3nc(-c4cn(C)c5ccccc45)c(=O)n(C[C@H]4CCCO4)c3n2)CC1
AC50 [1]: 6.31 µM (inconclusive)
AC50 [2]: inconclusive

O=C(CCCN1C(=O)c2cccc3cccc(c23)C1=O)N1CCc2ccccc2C1
AC50 [8]: 22.4 µM (inconclusive)
AC50 [2]: inconclusive

Cc1ccc(S(=O)(=O)Nc2ccc3c(c2)CC(=O)N([C@@H](C)CO)C[C@@H](C)[C@@H](CN(C)Cc2ccc(Oc4ccccc4)cc2)O3)cc1
AC50 [3]: 4.9 µM (active)

CNCCc1ccccn1
IC50 [9]: > 29.9 µM (inactive)
EC50 [10]: 1.24 µM (active)
IC50 [11]: 6.02 µM (active)
EC50 [12]: > 29.9 µM (inactive)

O=C(CSc1nc2ccccc2c(=O)n1C1CC1)NCc1ccccc1
IC50 [4]: 4.79 µM (active)

COc1cccc(Nc2nc(C(N)COCc3ccccc3)cs2)n1 (stereo not drawn)
IC50 [9]: 21.9 µM (inactive)
EC50 [10]: 2.55 µM (active)
IC50 [11]: 8.79 µM (active)
EC50 [12]: 22.2 µM (inactive)

C[C@@H]1CN([C@@H](C)CO)C(=O)c2cccc(NC(=O)c3ccc(-c4nccs4)cc3)c2O[C@H]1CN(C)CC1CCCCC1
AC50 [3]: 4.06 µM (active)

C[C@H]1CN([C@@H](C)CO)C(=O)Cc2cc(NC(=O)C3CC3)ccc2O[C@@H]1CN(C)Cc1ccc(C(F)(F)F)cc1
AC50 [3]: 3.25 µM (active)

CC(C)C(=O)Nc1cccc(NC(=O)c2ccc(Cl)cc2Cl)c1
IC50 [4]: 7.24 µM (active)

Cc1noc(C)c1S(=O)(=O)Nc1ccc2c(c1)C(=O)N([C@H](C)CO)C[C@H](C)[C@@H](CN(C)Cc1ccc(C(=O)Nc3ccccc3N)cc1)O2
AC50 [3]: 1.4 µM (active)

NC(=O)CCCn1c(C(=O)c2cc(Cl)c(N)c(Cl)c2)c2ccc([N+](=O)[O-])cc2[n+]1[O-]
IC50 [13]: > 20 µM (inactive)
IC50 [4]: 12.3 µM (active)

CN1C(=O)NC(c2ccccc2)C2=C1CN(CCc1ccccc1)C2=O (stereo not drawn)
IC50 [14]: > 47.1 µM (inactive)
EC50 [15]: > 53 µM (inactive)
IC50 [9]: > 29.9 µM (inactive)
EC50 [10]: 1.03 µM (active)
IC50 [11]: 5.74 µM (active)
EC50 [12]: > 29.9 µM (inactive)

Cn1c(=O)c2nc(-c3ccccc3)oc2c2ccccc21
AC50 [16]: 28.2 µM (inconclusive)
AC50 [8]: 28.2 µM (inconclusive)
AC50 [2]: inconclusive

c1ccc(CCNc2ncnc3[nH]cnc23)cc1
IC50 [9]: > 29.9 µM (inactive)
EC50 [10]: 3.94 µM (active)
IC50 [11]: 8.92 µM (active)
EC50 [12]: > 29.9 µM (inactive)

Cc1cc(C(=O)CN2C(=O)C(=O)N(C3CCCC3)C2=O)c(C)n1CCc1ccccc1
IC50 [9]: > 29.9 µM (inactive)
EC50 [10]: 1.89 µM (active)
IC50 [11]: 3.28 µM (active)
EC50 [12]: > 29.9 µM (inactive)
